Measurements as given in PMC6017357, “In Vitro Inhibitory Effects of Synthetic Cannabinoid EAM-2201 on Cytochrome P450 and UDP-Glucuronosyltransferase Enzyme Activities in Human Liver Microsomes” (Molecules : A Journal of Synthetic Chemistry and Natural …, 2018).

Target: T1, UGT1A9 (Homo sapiens, UniProt O60656)
T1 construct: ultrapooled human liver microsomes (0.2 mg/mL), 5 mM UDPGA; from tissue; host or cells: ultrapooled human liver microsomes
T1 sequence (O60656 26-530): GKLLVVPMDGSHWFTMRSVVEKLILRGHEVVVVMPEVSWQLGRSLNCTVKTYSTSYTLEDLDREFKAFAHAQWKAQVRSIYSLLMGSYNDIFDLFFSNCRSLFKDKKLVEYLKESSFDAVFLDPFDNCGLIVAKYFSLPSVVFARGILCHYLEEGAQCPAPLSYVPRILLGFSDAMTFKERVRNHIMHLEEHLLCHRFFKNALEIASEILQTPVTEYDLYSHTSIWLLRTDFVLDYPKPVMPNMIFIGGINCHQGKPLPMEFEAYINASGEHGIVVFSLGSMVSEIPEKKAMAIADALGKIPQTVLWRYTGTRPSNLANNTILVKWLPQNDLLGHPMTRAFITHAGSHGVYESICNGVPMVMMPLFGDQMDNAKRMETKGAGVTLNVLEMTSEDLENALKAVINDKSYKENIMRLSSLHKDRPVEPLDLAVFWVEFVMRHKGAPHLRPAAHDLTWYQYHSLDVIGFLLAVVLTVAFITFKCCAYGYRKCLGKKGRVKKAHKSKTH
Assay: UGT1A9-catalyzed mycophenolic acid glucuronidation in human liver microsomes
Type: in vitro ADME
Conditions: at 50 µM
Experimental: The inhibitory effects of EAM-2201 on UGT1A1, UGT1A3, UGT1A4, UGT1A6, UGT1A9 and UGT2B7 were evaluated using LC-MS/MS and the cocktail of UGT substrates as previously described. Each incubation mixture was prepared in a final volume of 100 µL as follows: ultrapooled human liver microsomes (0.2 mg/mL), 5 mM UDPGA, 10 mM magnesium chloride, alamethicin (25 µg/mL), 50 mM Tris buffer (pH 7.4), various concentrations of EAM-2201 in DMSO (final concentrations of 1–50 µM, 0.5% DMSO) and the UGT enzyme-specific substrates of two cocktail sets (set A: 0.5 µM SN-38, 2 µM chenodeoxycholic acid and 0.5 µM trifluoperazine; set B: 1 µM N-acetylserotonin, 0.2 µM mycophenolic acid and 1 µM naloxone, acetonitrile content, 0.5%). […] Supernatant from sets A and B (50 µL of each) was mixed and aliquots (5 µL) were analyzed by LC-MS/MS. […]
The metabolites formed from the six UGT cocktail substrates were simultaneously measured using LC-MS/MS [41]. […] Each metabolite was quantified via SRM in the negative ion mode: chenodeoxycholic acid 24-acyl-β-glucuronide, 567.2 > 391.0; mycophenolic acid glucuronide, 495.2 > 318.9; and propofol glucuronide (IS), 353.3 > 177.1; and in the positive ion mode: SN-38 glucuronide, 569.0 > 393.0; trifluoperazine glucuronide, 584.2 > 408.1; N-acetylserotonin-β-D-glucuronide, 395.2 > 219.0; naloxone 3-β-D-glucuronide, 504.0 > 310.0; and meloxicam (IS), 352.0 > 115.1. […]

## CCc1ccc(C(=O)c2cn(CCCCCF)c3ccccc23)c2ccccc12 [EAM-2201, (4-ethyl-1-naphthalenyl)[1-(5-fluoropentyl)-1H-indol-3-yl]-methanone]
  inhibition of UGT1A9-catalyzed mycophenolic acid glucuronidation: negligibly inhibited
